Experimental data from patent US10280149B2, “Therapeutic compounds and uses thereof” (GENENTECH, INC., priority 2015, dated 2019).

biological target: Full length KDM2B (Homo sapiens (Human), UniProt Q8NHM5); test: KDM2B TR-FRET assay for determining inhibitor IC50; type: biochemical; conditions: TR-FRET (HTRF), biotin-H3K36me2 peptide substrate, 2-OG 0.3 μM or 6 μM
Excerpt: KDM2B TR-FRET Assay for Determining Inhibitor IC50
The KDM2B TR-FRET Assay described above represents an additional embodiment of the invention.

Sequence of Full length KDM2B (Q8NHM5 whole entry): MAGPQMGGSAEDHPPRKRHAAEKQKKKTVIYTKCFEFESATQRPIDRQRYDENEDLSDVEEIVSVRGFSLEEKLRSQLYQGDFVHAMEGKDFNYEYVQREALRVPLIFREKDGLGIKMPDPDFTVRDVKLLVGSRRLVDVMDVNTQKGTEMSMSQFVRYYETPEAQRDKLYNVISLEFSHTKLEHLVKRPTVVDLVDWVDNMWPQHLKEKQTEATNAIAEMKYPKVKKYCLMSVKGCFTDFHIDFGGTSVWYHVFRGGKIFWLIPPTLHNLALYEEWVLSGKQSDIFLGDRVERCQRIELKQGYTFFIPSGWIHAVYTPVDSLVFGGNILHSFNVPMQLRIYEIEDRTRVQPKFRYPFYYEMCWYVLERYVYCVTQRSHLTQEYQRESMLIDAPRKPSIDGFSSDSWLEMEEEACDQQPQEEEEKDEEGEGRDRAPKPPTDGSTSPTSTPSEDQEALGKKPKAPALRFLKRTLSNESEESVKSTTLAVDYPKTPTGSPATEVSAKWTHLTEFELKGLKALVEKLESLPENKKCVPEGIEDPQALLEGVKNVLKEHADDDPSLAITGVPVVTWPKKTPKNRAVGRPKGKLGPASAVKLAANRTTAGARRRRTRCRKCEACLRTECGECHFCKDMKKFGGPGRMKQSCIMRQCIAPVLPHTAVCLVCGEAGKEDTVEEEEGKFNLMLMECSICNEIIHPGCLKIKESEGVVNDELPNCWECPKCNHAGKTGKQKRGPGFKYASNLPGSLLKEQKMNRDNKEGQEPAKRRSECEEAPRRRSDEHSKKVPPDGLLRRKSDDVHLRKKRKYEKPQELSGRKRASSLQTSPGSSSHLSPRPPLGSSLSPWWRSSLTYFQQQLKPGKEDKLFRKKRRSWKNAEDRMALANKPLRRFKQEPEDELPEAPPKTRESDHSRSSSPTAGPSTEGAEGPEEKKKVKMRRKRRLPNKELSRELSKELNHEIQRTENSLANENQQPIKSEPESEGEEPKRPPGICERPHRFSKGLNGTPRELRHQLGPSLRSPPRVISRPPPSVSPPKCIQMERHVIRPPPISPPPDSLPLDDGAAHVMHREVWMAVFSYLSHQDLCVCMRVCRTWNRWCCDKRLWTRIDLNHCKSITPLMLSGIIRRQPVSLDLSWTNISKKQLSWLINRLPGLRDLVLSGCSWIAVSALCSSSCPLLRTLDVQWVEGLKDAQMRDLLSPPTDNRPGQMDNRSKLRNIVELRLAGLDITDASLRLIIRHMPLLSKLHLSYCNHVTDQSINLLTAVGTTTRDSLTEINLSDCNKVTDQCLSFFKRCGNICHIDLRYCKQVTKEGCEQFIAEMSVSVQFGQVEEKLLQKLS

SMILES | IC50
CC1CCN(CC2CC2)CC1C(=O)c1ccc2c(O)cccc2c1 (single isomer, unassigned) [Example 151b, (1-(cyclopropylmethyl)-4-methylpiperidin-3-yl)(5-hydroxynaphthalen-2-yl)methanone] | 39.5 nM
COc1cccc(C(=O)[C@@H]2CCCN(CC3CC3)C2)c1 (stereo in doubt) [Example 109a, (1-(cyclopropylmethyl)piperidin-3-yl)(3-methoxyphenyl)methanone] | 14100 nM
COc1cccc(C(=O)[C@H]2CCCN(CC3CC3)C2)c1 (stereo in doubt) [Example 109b, (1-(cyclopropylmethyl)piperidin-3-yl)(3-methoxyphenyl)methanone] | 1300 nM
COc1ccc(C(=O)[C@@H]2CCCN(CC3CC3)C2)cc1 (stereo in doubt) [Example 110b, (1-(cyclopropylmethyl)piperidin-3-yl)(4-methoxyphenyl)methanone] | 5300 nM
COc1ccccc1C(=O)[C@@H]1CCCN(CC2CC2)C1 (stereo in doubt) [Example 111, (1-(cyclopropylmethyl)piperidin-3-yl)(2-methoxyphenyl)methanone] | 3100 nM
O=C(c1ccc(Cl)cc1)[C@@H]1CCCN(CC2CC2)C1 (stereo in doubt) [Example 116a, (4-chlorophenyl)(1-(cyclopropylmethyl)piperidin-3-yl)methanone] | 5800 nM
O=C(c1ccc(Cl)cc1)[C@H]1CCCN(CC2CC2)C1 (stereo in doubt) [Example 116b, (4-chlorophenyl)(1-(cyclopropylmethyl)piperidin-3-yl)methanone] | 1400 nM
O=C(c1ccc2ccccc2n1)[C@@H]1CCCN(CC2CC2)C1 (stereo in doubt) [Example 117b, (1-(cyclopropylmethyl)piperidin-3-yl)(quinolin-2-yl)methanone] | 750 nM
O=C(c1cccc(Cl)c1)[C@@H]1CCCN(CC2CC2)C1 (stereo in doubt) [Example 118a, (3-chlorophenyl)(1-(cyclopropylmethyl)piperidin-3-yl)methanone] | 6800 nM
O=C(c1cccc(Cl)c1)[C@H]1CCCN(CC2CC2)C1 (stereo in doubt) [Example 118b, (3-chlorophenyl)(1-(cyclopropylmethyl)piperidin-3-yl)methanone] | 661 nM
COc1ccc2cc(C(=O)[C@@]3(F)CCCN(CC4CC4)C3)ccc2c1 (stereo in doubt) [Example 157] | 6100 nM
COc1ccc2cc(C(=O)[C@@]3(O)CCCN(CC4CC4)C3)ccc2c1 (stereo in doubt) [Example 158a, (1-(cyclopropylmethyl)-3-hydroxypiperidin-3-yl)(6-methoxynaphthalen-2-yl)methanone] | 1900 nM
COc1ccc2cc(C(=O)[C@]3(O)CCCN(CC4CC4)C3)ccc2c1 (stereo in doubt) [Example 158b, (1-(cyclopropylmethyl)-3-hydroxypiperidin-3-yl)(6-methoxynaphthalen-2-yl)methanone] | 11500 nM
C[C@H]1CCN(CC2CC2)C[C@@H]1C(=O)c1ccc2cc(C#N)ccc2c1 (stereo in doubt) [Example 160a, 6-(1-(cyclopropylmethyl)-4-methylpiperidine-3-carbonyl)-2-naphthonitrile] | 1700 nM
C[C@@H]1CCN(CC2CC2)C[C@H]1C(=O)c1ccc2cc(C#N)ccc2c1 (stereo in doubt) [Example 160b, 6-(1-(cyclopropylmethyl)-4-methylpiperidine-3-carbonyl)-2-naphthonitrile] | 113 nM
C[C@H]1CCN(C2CCC2)C[C@@H]1C(=O)c1ccc2cc(C#N)ccc2c1 (stereo in doubt) [Example 161a, 6-(1-cyclobutyl-4-methylpiperidine-3-carbonyl)-2-naphthonitrile] | 3000 nM
C[C@@H]1CCN(C2CCC2)C[C@H]1C(=O)c1ccc2cc(C#N)ccc2c1 (stereo in doubt) [Example 161b, 6-(1-cyclobutyl-4-methylpiperidine-3-carbonyl)-2-naphthonitrile] | 12.3 nM
C[C@@H]1CCN(C2CCCC2)C[C@H]1C(=O)c1ccc2cc(C#N)ccc2c1 (stereo in doubt) [Example 162b, 6-(1-cyclopentyl-4-methylpiperidine-3-carbonyl)-2-naphthonitrile] | 85.7 nM
CCCN1CC[C@H](C)[C@@H](C(=O)c2ccc3cc(C#N)ccc3c2)C1 (stereo in doubt) [Example 163a, 6-(4-methyl-1-propylpiperidine-3-carbonyl)-2-naphthonitrile] | 993 nM
CCCN1CC[C@@H](C)[C@H](C(=O)c2ccc3cc(C#N)ccc3c2)C1 (stereo in doubt) [Example 163b, 6-(4-methyl-1-propylpiperidine-3-carbonyl)-2-naphthonitrile] | 45.4 nM

SMILES | IC50
COc1ccc2cc(C(=O)[C@H]3CCCN(C4CCC4)C3)ccc2c1CC#N (stereo in doubt) [Example 179a, 2-(6-(1-cyclobutylpiperidine-3-carbonyl)-2-methoxynaphthalen-1-yl)acetonitrile] | 5.65 nM
COc1ccc2cc(C(=O)[C@@H]3CCCN(C4CCC4)C3)ccc2c1CC#N (stereo in doubt) [Example 179b, 2-(6-(1-cyclobutylpiperidine-3-carbonyl)-2-methoxynaphthalen-1-yl)acetonitrile] | 361 nM
CCCN1CC[C@@H](C)[C@@H](C(=O)c2ccc3c(CC#N)c(OC)ccc3c2)C1 (stereo in doubt) [Example 181a, 2-(2-methoxy-6-(4-methyl-1-propylpiperidine-3-carbonyl)naphthalen-1-yl)acetonitrile] | 1300 nM
CCCN1CC[C@H](C)[C@H](C(=O)c2ccc3c(CC#N)c(OC)ccc3c2)C1 (stereo in doubt) [Example 181b, 2-(2-methoxy-6-(4-methyl-1-propylpiperidine-3-carbonyl)naphthalen-1-yl)acetonitrile] | 12.3 nM
COc1ccc2cc(C(=O)[C@H]3CN(C4CCC4)CC[C@H]3C)ccc2c1CC#N (stereo in doubt) [Example 182a, 2-(6-(1-cyclobutyl-4-methylpiperidine-3-carbonyl)-2-methoxynaphthalen-1-yl)acetonitrile] | 290 nM
COc1ccc2cc(C(=O)[C@@H]3CN(C4CCC4)CC[C@@H]3C)ccc2c1CC#N (stereo in doubt) [Example 182b, 2-(6-(1-cyclobutyl-4-methylpiperidine-3-carbonyl)-2-methoxynaphthalen-1-yl)acetonitrile] | 1.12 nM
CC[C@@H]1CCN(C2CCC2)C[C@H]1C(=O)c1ccc2c(CC#N)c(OC)ccc2c1 (stereo in doubt) [Example 183a, 2-(6-(1-cyclobutyl-4-ethylpiperidine-3-carbonyl)-2-methoxynaphthalen-1-yl)acetonitrile] | 55.2 nM
CC[C@H]1CCN(C2CCC2)C[C@@H]1C(=O)c1ccc2c(CC#N)c(OC)ccc2c1 (stereo in doubt) [Example 183b, 2-(6-(1-cyclobutyl-4-ethylpiperidine-3-carbonyl)-2-methoxynaphthalen-1-yl)acetonitrile] | 2.06 nM
CC[C@@H]1CCN(C2CCC2)C[C@@H]1C(=O)c1ccc2c(CC#N)c(OC)ccc2c1 (stereo in doubt) [Example 183c, 2-(6-(1-cyclobutyl-4-ethylpiperidine-3-carbonyl)-2-methoxynaphthalen-1-yl)acetonitrile] | 78 nM
CC[C@H]1CCN(C2CCC2)C[C@H]1C(=O)c1ccc2c(CC#N)c(OC)ccc2c1 (stereo in doubt) [Example 183d, 2-(6-(1-cyclobutyl-4-ethylpiperidine-3-carbonyl)-2-methoxynaphthalen-1-yl)acetonitrile] | 1.53 nM
CCC[C@@H]1CCN(C2CCC2)C[C@@H]1C(=O)c1ccc2c(CC#N)c(OC)ccc2c1 (stereo in doubt) [Example 184a, 2-(6-(1-cyclobutyl-4-propylpiperidine-3-carbonyl)-2-methoxynaphthalen-1-yl)acetonitrile] | 77.4 nM
CCC[C@H]1CCN(C2CCC2)C[C@H]1C(=O)c1ccc2c(CC#N)c(OC)ccc2c1 (stereo in doubt) [Example 184b, 2-(6-(1-cyclobutyl-4-propylpiperidine-3-carbonyl)-2-methoxynaphthalen-1-yl)acetonitrile] | 1.41 nM
CCC[C@@H]1CCN(C2CCC2)C[C@H]1C(=O)c1ccc2c(CC#N)c(OC)ccc2c1 (stereo in doubt) [Example 184c, 2-(6-(1-cyclobutyl-4-propylpiperidine-3-carbonyl)-2-methoxynaphthalen-1-yl)acetonitrile] | 3.13 nM
CCC[C@H]1CCN(C2CCC2)C[C@@H]1C(=O)c1ccc2c(CC#N)c(OC)ccc2c1 (stereo in doubt) [Example 184d, 2-(6-(1-cyclobutyl-4-propylpiperidine-3-carbonyl)-2-methoxynaphthalen-1-yl)acetonitrile] | 263 nM
COc1ccc2cc(C(=O)[C@@H]3CN(C4CCC4)CC[C@@H]3CC(C)C)ccc2c1CC#N (stereo in doubt) [Example 185a, 2-(6-(1-cyclobutyl-4-isobutylpiperidine-3-carbonyl)-2-methoxynaphthalen-1-yl)acetonitrile] | 53.5 nM
COc1ccc2cc(C(=O)[C@H]3CN(C4CCC4)CC[C@H]3CC(C)C)ccc2c1CC#N (stereo in doubt) [Example 185b, 2-(6-(1-cyclobutyl-4-isobutylpiperidine-3-carbonyl)-2-methoxynaphthalen-1-yl)acetonitrile] | 2 nM
COc1ccc2cc(C(=O)[C@@H]3CN(C4CCC4)CC[C@@H]3C(C)C)ccc2c1CC#N (stereo in doubt) [Example 186a, 2-(6-(1-cyclobutyl-4-isopropylpiperidine-3-carbonyl)-2-methoxynaphthalen-1-yl)acetonitrile] | 70.1 nM
COc1ccc2cc(C(=O)[C@H]3CN(C4CCC4)CC[C@H]3C(C)C)ccc2c1CC#N (stereo in doubt) [Example 186b, 2-(6-(1-cyclobutyl-4-isopropylpiperidine-3-carbonyl)-2-methoxynaphthalen-1-yl)acetonitrile] | 2.12 nM
O=C(c1cccc(Cl)c1)C1CCCN(C2CCCC2)C1 (stereo not drawn) [Example 3, (3-chlorophenyl)-(1-cyclopentyl-3-piperidyl)methanone] | 23000 nM
